Measured values taken from US10633389B2, “CARM1 inhibitors and uses thereof” (Epizyme, Inc., priority 2013, dated 2020).

System: asymmetric di-methyl PABP1 in RKO cells
Assay: RKO methylation assay, In Cell Western (ICW) for asymmetric di-methyl PABP1
Assay type: cell-based
Conditions: Homo sapiens, RKO, Cellular potencies, ICW PABP1me2a
Method in brief: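 RKO cells treated with compound for 48 h at 37 °C, then fixed, permeabilized and immunostained for asymmetric di-methyl PABP1, with DRAQ5 as DNA stain. Infrared 700/800 nm signal ratio normalized to DMSO and 20 μM reference-compound controls; IC50 from triplicate wells.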

Compared with `CNCC(O)COc1cccc(-c2nc(-c3c(C)noc3C)cc(N3CCN[C@@H](C)C3)n2)c1` (some centres unmarked) [Example 40-1a], `CNCC(O)COc1cccc(-c2nc(-c3c(C)noc3C)cc(N3CCN(C(=O)N(C)C)[C@H](C)C3)n2)c1` (some centres unmarked) [Example 146-1a] is lower in IC50: 10 to 20 µM for the first, < 5 µM for the second. The second is the more potent here.

`CNC[C@H](O)COc1ccc(F)c(-c2nc(-c3c(C)noc3C)c(C)c(N3Cc4cccnc4C3)n2)c1` [Example 91-3] and `CNC[C@@H](O)COc1ccc(F)c(-c2nc(-c3c(C)noc3C)c(C)c(N3Cc4cncnc4C3)n2)c1` [Example 260-3] cannot be ordered by IC50: < 5 µM for the first, < 5 µM for the second.

`CNC[C@@H](O)COc1ccc(Cl)c(-c2nc(-c3c(C)noc3C)c(C)c(N3CCC4(CC3)CN(C(=O)OC)C4)n2)c1` [Example 115-3] and `CCOC(=O)N1CCC2(C1)CN(c1nc(-c3cc(OC[C@H](O)CNC)ccc3Cl)nc(-c3c(C)noc3C)c1C)C2` [Example 287-3] cannot be ordered by IC50: < 5 µM for the first, < 5 µM for the second.

First: CNCC(O)COc1cccc(-c2nc(-c3c(C)noc3C)cc(N3C[C@H]4C[C@@H]3CN4)n2)c1 (some centres unmarked) [Example 109-1a]
Second: CNCC(O)COc1cccc(-c2nc(N[C@@H]3CCOC3)cc(-c3c(C)noc3C)n2)c1 (some centres unmarked) [Example 11-1a]
The IC50 of the first is higher: 10 to 20 µM for the first, 5 to 10 µM for the second.

`CNCC(O)COc1cccc(-c2nc(NC[C@H]3COCCN3CC(F)F)c(C)c(-c3c(C)noc3C)n2)c1` (some centres unmarked) [Example 274-1a] and `CCS(=O)(=O)N1CCOC[C@@H]1CNc1nc(-c2cccc(OCC(O)CNC)c2)nc(-c2c(C)noc2C)c1C` (some centres unmarked) [Example 230-1a] cannot be ordered by IC50: < 5 µM for the first, < 5 µM for the second.

First: CNC[C@@H](O)COc1ccc(Cl)c(-c2nc(-c3c(C)noc3C)c(Cl)c(N3CC4(CCOCC4)C3)n2)c1 [Example 229-3]
Second: CNC[C@@H](O)COc1ccc(Cl)c(-c2nc(-c3c(C)noc3C)c(C)c(N3CC(CO)(CO)C3)n2)c1 [Example 163-3]
The IC50 of the first is lower: < 5 µM for the first, 5 to 10 µM for the second.

Compared with `CNCC(O)COc1cccc(-c2nc(NC3CCOC3)c(C)c(-c3cn(C)nn3)n2)c1` (centres unmarked) [Example 335-1a], `CNCC(O)COc1cccc(-c2nc(NC3CCOCC3)c(C)c(-c3c(C)noc3C)n2)c1` (centres unmarked) [Example 6-1a] is lower in IC50: 5 to 10 µM for the first, < 5 µM for the second. The second is the more potent here.

`CNCC(O)COc1cc(Cl)cc(-c2nc(C(=O)OC)cc(N(C)C3CCOCC3)n2)c1` (centres unmarked) [Example 623-1a] and `CNCC(O)COc1cc(Cl)cc(-c2nc(-c3ccnc(N(C)C)c3)cc(N(C)C3CCOCC3)n2)c1` (centres unmarked) [Example 609-1a] fall in the same range of IC50: 10 to 20 µM for the first, 10 to 20 µM for the second.

`CCC1(CNc2nc(-c3cccc(OCC(O)CNC)c3)nc(-c3c(C)noc3C)c2C)CCOCC1` (centres unmarked) [Example 141-1a] and `CNCC(O)COc1cccc(-c2nc(NCC3(OC)CCOCC3)c(C)c(-c3c(C)noc3C)n2)c1` (centres unmarked) [Example 300-1a] cannot be ordered by IC50: < 5 µM for the first, < 5 µM for the second.

First: CNCC(O)COc1cccc(-c2nc(-c3c(C)noc3C)c(C)c(N3CCS(=O)(=O)CC3)n2)c1 (centres unmarked) [Example 57-1a]
Second: CNCC(O)COc1cccc(-c2nc(-c3c(C)noc3C)c(C)c(N3CCOC(C)(C)C3)n2)c1 (centres unmarked) [Example 200-1a]
The IC50 of the first is higher: 10 to 20 µM for the first, < 5 µM for the second. The second is the more potent here.

First: CNCC(O)COc1ccc(Cl)c(-c2nc(NC3CCOCC3)c(C)c(-c3c(CO)noc3C)n2)c1 (centres unmarked) [Example 273-3]
Second: CNC[C@@H](O)COc1ccc(Cl)c(-c2nc(NC3CCOCC3)c(C)c(-c3c(C)noc3C)n2)c1 [Example 127-3]
The IC50 of the first is higher: 5 to 10 µM for the first, < 5 µM for the second. The second is the more potent here.

`CNCC(O)COc1cccc(-c2nc(NC3CCOC3)c(C)c(N3CC4(CCNCC4)c4ccccc43)n2)c1` (centres unmarked) [Example 398-1a] and `CNCC(O)COc1cccc(-c2nc(N[C@@H]3CCOC3)c(C)c(N3C[C@H]4CNC[C@H]4C3)n2)c1` (some centres unmarked) [Example 440-1a] fall in the same range of IC50: 10 to 20 µM for the first, 10 to 20 µM for the second.

`CNC[C@@H](O)COc1ccc(Cl)c(-c2nc(NC[C@@H]3CCOC3)c(C)c(-c3c(C)noc3C)n2)c1` [Example 228-3] and `CCN1CCC[C@@H]1CNc1nc(-c2cc(OC[C@@H](O)CNC)ccc2Cl)nc(-c2c(C)noc2C)c1C` [Example 77-3] cannot be ordered by IC50: < 5 µM for the first, < 5 µM for the second.

`CNCC(O)COc1ccc(Cl)c(-c2nc(N[C@H]3CCC[C@@H](OC)C3)c(C)c(-c3c(C)noc3C)n2)c1` (some centres unmarked) [Example 57-3] and `CCO[C@@H]1CCC[C@H]1Nc1nc(-c2cc(OC[C@H](O)CNC)ccc2Cl)nc(-c2c(C)noc2C)c1C` [Example 240-3] cannot be ordered by IC50: < 5 µM for the first, < 5 µM for the second.

`CNC[C@H](O)COc1ccc(F)c(-c2nc(NCCC(C)(C)OC)c(C)c(-c3c(C)noc3C)n2)c1` [Example 83-3] and `CNC[C@@H](O)COc1ccc(Cl)c(-c2nc(N[C@H]3COC[C@@H]3O)c(C)c(-c3c(C)noc3C)n2)c1` [Example 209-3] cannot be ordered by IC50: < 5 µM for the first, < 5 µM for the second.

First: CNCC(O)COc1cccc(-c2nc(N3CCN(C)[C@@H](C)C3)cc(N(C)C3CCOCC3)n2)c1 (some centres unmarked) [Example 502-1a]
Second: CNCC(O)COc1cccc(-c2nc(N(C)C3CCOCC3)cc(-n3cccn3)n2)c1 (centres unmarked) [Example 542-1a]
The IC50 of the first is lower: < 5 µM for the first, 10 to 20 µM for the second. The first is the more potent here.

Compared with `Cc1noc(C)c1-c1nc(-c2cccc(OCC(O)CN)c2)nc(NC2CCOCC2)c1C` (centres unmarked) [Example 54-1a], `Cc1noc(C)c1-c1cc(NC2CCOCC2)nc(-c2cccc(OC[C@@H](O)CN)c2)n1` [Example 15-1a] is higher in IC50: < 5 µM for the first, 10 to 20 µM for the second. The first is the more potent here.

Compared with `CNC[C@@H](O)COc1ccc(Cl)c(-c2nc(N[C@H]3CO[C@H](C)C3)c(Cl)c(-c3c(C)noc3C)n2)c1` [Example 201-3], `CNC[C@@H](O)COc1ccc(Cl)c(-c2nc(-c3c(C)noc3C)c(C)c(N3CCOC3=O)n2)c1` [Example 187-3] is higher in IC50: < 5 µM for the first, 10 to 20 µM for the second.

First: CNCC(O)COc1cccc(-c2nc(NC3(C)CCOCC3)c(C)c(-c3c(C)noc3C)n2)c1 (centres unmarked) [Example 101-1a]
Second: CNCC(O)COc1cccc(-c2nc(NC3(CO)CC3)c(C)c(-c3c(C)noc3C)n2)c1 (centres unmarked) [Example 5-3]
The IC50 of the first is lower: < 5 µM for the first, 5 to 10 µM for the second.

First: CCOC(=O)N1CCC(Nc2nc(-c3cccc(OCC(O)CNC)c3)nc(-c3c(C)noc3C)c2C)CC1 (centres unmarked) [Example 189-1a]
Second: CNCC(O)COc1cccc(-c2nc(N[C@@H]3CCNC3)c(C)c(-c3c(C)noc3C)n2)c1 (some centres unmarked) [Example 307-1a]
The IC50 of the first is lower: < 5 µM for the first, 10 to 20 µM for the second. The first is the more potent here.

`CNCC(O)COc1cccc(-c2nc(N[C@@H]3CCOC3)c(C)c(N3CCC(N4CCOCC4)CC3)n2)c1` (some centres unmarked) [Example 367-1a] and `CNCC(O)COc1cccc(-c2nc(N[C@@H]3CCOC3)c(C)c(N3CCC(S(C)(=O)=O)CC3)n2)c1` (some centres unmarked) [Example 441-1a] fall in the same range of IC50: 5 to 10 µM for the first, 5 to 10 µM for the second.

`CNC[C@@H](O)COc1ccc(Cl)c(-c2nc(-c3c(C)noc3C)c(C)c(N3Cc4cnn(C5CC5)c4C3)n2)c1` [Example 270-3] and `CNC[C@@H](O)COc1ccc(F)c(-c2nc(-c3c(C)noc3C)c(C)c(N3Cc4nccnc4C3)n2)c1` [Example 226-3] cannot be ordered by IC50: < 5 µM for the first, < 5 µM for the second.

First: CNCC(O)COc1cccc(-c2nc(C(C)=O)c(C)c(N(C)C3CCOCC3)n2)c1 (centres unmarked) [Example 544-1a]
Second: CNCC(O)COc1cccc(-c2nc(-c3cnc(C)n3C)cc(N(C)C3CCOCC3)n2)c1 (centres unmarked) [Example 517-1a]
The IC50 of the first is higher: 10 to 20 µM for the first, 5 to 10 µM for the second. The second is the more potent here.

`CCS(=O)(=O)N1CCN(c2nc(-c3cccc(OCC(O)CNC)c3)nc(N[C@@H]3CCOC3)c2C)CC1` (some centres unmarked) [Example 464-1a] and `CCOC(=O)N1CCN(c2nc(-c3cccc(OCC(O)CNC)c3)nc(N[C@@H]3CCOC3)c2C)CC1` (some centres unmarked) [Example 456-1a] cannot be ordered by IC50: < 5 µM for the first, < 5 µM for the second.

`CNCC(O)COc1cccc(-c2nc(-c3c(C)noc3C)cc(N3CCN(C(=O)N(C)C)[C@@H](C)C3)n2)c1` (some centres unmarked) [Example 91-1a] and `CNCC(O)COc1cccc(-c2nc(NC3CCN(C(=O)OC)CC3)cc(-c3c(C)noc3C)n2)c1` (centres unmarked) [Example 102-1a] cannot be ordered by IC50: < 5 µM for the first, < 5 µM for the second.

`CCOC(=O)N1CCOC[C@@H]1CNc1nc(-c2cc(OC[C@@H](O)CNC)ccc2Cl)nc(-c2c(C)noc2C)c1C` [Example 42-3] and `CCOC(=O)N1CCCCC1CNc1nc(-c2cc(OC[C@@H](O)CNC)ccc2Cl)nc(-c2c(C)noc2C)c1C` (some centres unmarked) [Example 27-3] cannot be ordered by IC50: < 5 µM for the first, < 5 µM for the second.

`CNCC(O)COc1cccc(-c2nc(-c3c(C)noc3C)c(C)c(N3CC(NC(=O)OC)C3)n2)c1` (centres unmarked) [Example 12-3] and `CNCC(O)COc1cccc(-c2nc(-c3c(C)noc3C)c(C)c(N3CCO[C@H](CO)C3)n2)c1` (some centres unmarked) [Example 125-1a] cannot be ordered by IC50: < 5 µM for the first, < 5 µM for the second.

`CNCC(O)COc1cccc(-c2nc(N[C@H]3C[C@@](C)(O)C3)c(C)c(-c3c(C)noc3C)n2)c1` (some centres unmarked) [Example 255-1a] and `CNCC(O)COc1cccc(-c2nc(N[C@H]3CCC[C@H]3O)c(C)c(-c3c(C)noc3C)n2)c1` (some centres unmarked) [Example 218-1a] cannot be ordered by IC50: < 5 µM for the first, < 5 µM for the second.

`CNCC(O)COc1cccc(-c2nc(N[C@@H]3CCOC3)c(C)c(N3CCN(CC(=O)N(C)C)CC3)n2)c1` (some centres unmarked) [Example 391-1a] and `CNCC(O)COc1cccc(-c2nc(N[C@@H]3CCOC3)c(C)c(N3CCS(=O)(=O)CC3)n2)c1` (some centres unmarked) [Example 425-1a] fall in the same range of IC50: 10 to 20 µM for the first, 10 to 20 µM for the second.

`CCOC(=O)N1CCOC[C@@H]1CNc1nc(-c2cccc(OC[C@H](O)CNC)c2)nc(-c2c(C)noc2C)c1C` [Example 277-1a] and `CNCC(O)COc1cccc(-c2nc(NCC3CCN(C(=O)C4CC4)CC3)c(C)c(-c3c(C)noc3C)n2)c1` (centres unmarked) [Example 249-1a] cannot be ordered by IC50: < 5 µM for the first, < 5 µM for the second.

First: CNCC(O)COc1cccc(-c2nc(-c3cncnc3)cc(N(C)C3CCOCC3)n2)c1 (centres unmarked) [Example 525-1a]
Second: CNCC(O)COc1cccc(-c2nc(-c3cncn3C)cc(N(C)C3CCOCC3)n2)c1 (centres unmarked) [Example 580-1a]
The IC50 of the first is lower: 5 to 10 µM for the first, 10 to 20 µM for the second.

First: CNCC(O)COc1cccc(-c2nc(-c3ccnc(C(C)(C)O)c3)cc(N(C)C3CCOCC3)n2)c1 (centres unmarked) [Example 503-1a]
Second: CNCC(O)COc1cccc(-c2nc(-c3ccc(N4CCOCC4)nn3)cc(N(C)C3CCOCC3)n2)c1 (centres unmarked) [Example 512-1a]
The IC50 of the first is lower: < 5 µM for the first, 5 to 10 µM for the second. The first is the more potent here.

First: CNCC(O)COc1cccc(-c2nc(OCC3CCNCC3)c(C)c(-c3c(C)noc3C)n2)c1 (centres unmarked) [Example 289-1a]
Second: CCS(=O)(=O)N1CC2(CN(c3nc(-c4cccc(OCC(O)CNC)c4)nc(-c4c(C)noc4C)c3C)C2)C1 (centres unmarked) [Example 16-3]
The IC50 of the first is higher: 5 to 10 µM for the first, < 5 µM for the second. The second is the more potent here.

`CNCC(O)COc1cc(Cl)cc(-c2nc(-c3ccncc3)c(C3CC3)c(N(C)C3CCOCC3)n2)c1` (centres unmarked) [Example 574-1a] and `CNCC(O)COc1cc(Cl)cc(-c2nc(NC3CCNCC3)cc(-c3ccncc3)n2)c1` (centres unmarked) [Example 665-1a] cannot be ordered by IC50: 10 to 20 µM for the first, ≥ 20 µM for the second.
